{"source": "patent US20020022587A1", "about": "“Methods for effecting neuroprotection” (priority 2000, published 2002)", "key": {"[1]": {"system": "parvocellular neurons of the paraventricular nucleus (PVN)", "experiment": "NMDA agonist excitotoxicity after PVN microinjection, histological count of surviving parvocellular neurons, Sprague-Dawley rats", "type": "in vivo, rat", "method": "Experiments were performed on male Sprague-Dawley rats (150-525 g. Charles River, P.Q., Canada). The animals were anesthetized with sodium pentobarbitol (65 mg/kg, ip), placed in a stereotaxic frame and the skull exposed, and a small burr hole drilled in the skull such that a cannula electrode (tip diameter 150 μm) could be advanced into the region of the PVN according to the coordinates of Paxinos and Watson (−0.9 mm Bregma, 0.5 mm lateral, 7.5 mm ventral) (Paxinos and Watson, The Rat Brain in Stereotaxic Coordinates, Academic Press, New York (1982)). Each animal received a 1.0 μl microinjection to each PVN (2×0.5 μl) according to one of the following protocols, saline/saline, saline/NMDA, 4-AP/saline, 4-AP/NMDA, angiotensin-II/saline, angiotensin-II/NMDA, saralasin (SAR)/NMDA. […]\nThe blocks were mounted, covered with Tissue-Tek O.C.T. compound (Sakura) and flash frozen in 2-methyl butane (cooled by dry ice) for 45 seconds. […] Only those animals with microinjection within the boundaries of PVN were further analyzed.\nMagnocellular neurons were differentiated from parvocellular neurons and cellular material by specific morphological characteristics (Sawchenko and Swanson, J. Comp. Neuro. 218:121-44 (1983)). […] Comparative analyses were performed whereby neurons were counted in 20 μm sections following the initial emergence of PVN. […]"}, "[2]": {"system": "outwardly rectifying whole-cell K+ current of isolated PVN neurons", "experiment": "Voltage clamp recordings from dissociated PVN neurons, voltage ramps", "type": "cell-based, rat", "details": "voltage ramps 100 mV/sec", "method": "Male, Sprague-Dawley rats (150-250 g, Charles River, P.Q., Canada) were killed by decapitation, the brain was removed quickly from the skull and immersed in cold (1-4° C.) artificial cerebrospinal fluid (aCSF). The brain was blocked and 400 μm hypothalamic slices, which included the PVN, were prepared as described in Bains and Ferguson (NeuroReport 8(9-10):2101-05 (1997)). Slices were incubated in oxygenated aCSF (95% O2, 5% CO2) for at least 90 minutes at room temperature. Twenty minutes prior to recording, the slice was transferred into a modified interface type recording chamber and continuously perfused with aCSF at a rate of 1 ml/min.\nFor isolated neurons, pipettes of 1-4 MΩ were filled with a pipette solution containing (in mM): potassium-gluconate (130), EGTA(10), MgCl2 (1), HEPES (10), Na2ATP (4), GTP (0.1), adjusted to pH 7.2 with KOH. The standard bath solution contained (inmM): NaCl (140), KCl (5), MgCl2 (1), CaCl2 (2), HEPES (10), glucose (10) and […] tetrodotoxin (TTX) (Alamone Labs, Jerusalem, Israel). Signals were amplified, collected and processed using an Axopatch 200B (Axon Instruments) amplifier, a 1401plus A-D interface and Signal software from C.E.D. […]"}, "[3]": {"system": "magnocellular neurons of the paraventricular nucleus (PVN)", "experiment": "NMDA agonist excitotoxicity after PVN microinjection, histological count of surviving magnocellular neurons, Sprague-Dawley rats", "type": "in vivo, rat", "details": "counted three days later", "method": "Experiments were performed on male Sprague-Dawley rats (150-525 g. Charles River, P.Q., Canada). The animals were anesthetized with sodium pentobarbitol (65 mg/kg, ip), placed in a stereotaxic frame and the skull exposed, and a small burr hole drilled in the skull such that a cannula electrode (tip diameter 150 μm) could be advanced into the region of the PVN according to the coordinates of Paxinos and Watson (−0.9 mm Bregma, 0.5 mm lateral, 7.5 mm ventral) (Paxinos and Watson, The Rat Brain in Stereotaxic Coordinates, Academic Press, New York (1982)). Each animal received a 1.0 μl microinjection to each PVN (2×0.5 μl) according to one of the following protocols, saline/saline, saline/NMDA, 4-AP/saline, 4-AP/NMDA, angiotensin-II/saline, angiotensin-II/NMDA, saralasin (SAR)/NMDA. The incision was then closed and the animal received the analgesic Buprenorphin (0.03 mg/kg, SQ) to aid postoperative recovery. Animals were allowed to recover for three days after which they were overdosed with sodium pentobarbitol (100 mg/kg) and perfused with 0.9% saline followed by 10% formalin through the left ventricle of the heart. The brain was removed, placed in formalin overnight at […]. The brain was then cut into a smaller block contained PVN and stored in a 30% sucrose, 0.1 M phosphate buffer at 4° C. for at least two days.\nThe blocks were mounted, covered with Tissue-Tek O.C.T. compound (Sakura) and flash frozen in 2-methyl butane (cooled by dry ice) for 45 seconds. Using the Frigocut 280 (Reichart Jung), 20 μm coronal sections were cut through the area of PVN. These sections were mounted and cresyl violet stained. The histological locations of the microinjection sites were verified at the light microscope level by an observer unaware of the experimental conditions. Only those animals with microinjection within the boundaries of PVN were further analyzed.\nMagnocellular neurons were differentiated from parvocellular neurons and cellular material by specific morphological characteristics (Sawchenko and Swanson, J. Comp. Neuro. 218:121-44 (1983)). In addition to the anatomical location of the neuron within PVN, morphological size was used to further characterize neuronal type. Neurons with soma diameter of approximately 20-25 μm and intact nuclei were characterized as viable magnocellular neurons. Neurons with soma diameter of between 15 and 20 μm were not included in the study, as they could not be reliably classified as belonging to either subpopulation. Histological sections were viewed under high magnification (40×) at the light microscope level and a grid was superimposed over each area of PVN. […] Comparative analyses were performed whereby neurons were counted in 20 μm sections following the initial emergence of PVN. […]"}, "[4]": {"system": "magnocellular neurons of the paraventricular nucleus (PVN)", "experiment": "NMDA agonist excitotoxicity after PVN microinjection, surviving magnocellular neurons, spontaneously hypertensive rats", "type": "in vivo, rat", "excerpt": "(§1) To determine whether magnocellular neurons in hypertensive rats with increased central angiotensin-II lose their resistance to excitotoxins as a consequence of endogenous angiotensin-II inhibiting the transient K^+ conductance, NMDA agonist or vehicle control was microinjected into PVN and surviving neurons were counted three days later. Following such treatment, a similar loss of parvocellular neurons to that found in normotensive animals was observed (82±2% surviving), while the resistance of magnocellular neurons was no longer observed in these animals (71±5% surviving) (see FIG. 3 for specific N values). To confirm that angiotensin-II was responsible for this loss of resistance, the NMDA agonist was next microinjected into PVN of spontaneously hypertensive rats immediately following the angiotensin-II receptor antagonist saralasin. […] These findings provide the first direct evidence that elevated angiotensin-II concentrations in the central nervous system of hypertensive animals may contribute to the increased susceptibility for stroke and that these actions can be prevented by central angiotensin-II receptor blockade. […]\n(§2) The blocks were mounted, covered with Tissue-Tek O.C.T. compound (Sakura) and flash frozen in 2-methyl butane (cooled by dry ice) for 45 seconds. […] Only those animals with microinjection within the boundaries of PVN were further analyzed. […]"}, "[5]": {"system": "parvocellular neurons of the paraventricular nucleus (PVN)", "experiment": "NMDA agonist excitotoxicity after PVN microinjection, surviving parvocellular neurons, spontaneously hypertensive rats", "type": "in vivo, rat", "details": "NMDA agonist alone into PVN, counted three days later", "excerpt": "as §1, §2"}, "[6]": {"details": "Li et al., Brain Res. Bull. 30:33-39 (1993); cited from earlier work"}, "[7]": {"details": "substance microinjected into PVN prior to NMDA agonist"}, "[8]": {"details": "substance microinjected into PVN alone"}}}
{"compound": "Nc1ccncc1", "note": "[4-AP, 4-aminopyridine]", "values": [{"measurement": "effect of 4-AP on parvocellular neuron population", "setting": "[1]; 4-AP pretreatment before NMDA agonist microinjection", "result": "no significant effect"}, {"measurement": "proportion of parvocellular neurons surviving", "setting": "[1]; NMDA agonist microinjection, PVN treated with 4-AP", "result": "80.9±3.0", "unit": "%"}, {"measurement": "inhibition of outwardly rectifying whole-cell current", "setting": "[2]; 100 μM", "result": "inhibited"}, {"measurement": "proportion of magnocellular neurons surviving", "setting": "[3]; [7]", "result": "78.9±4.6", "unit": "%"}]}
{"compound": "N[C@@H](C(=O)O)c1nnn[nH]1", "note": "[NMDA agonist, D-1-tetrazol-5yl-glycine]", "values": [{"measurement": "magnocellular neurons surviving", "setting": "[4]; hypertensive rats, NMDA agonist alone into PVN, counted three days later", "result": "71±5", "unit": "%"}, {"measurement": "parvocellular neurons surviving", "setting": "[5]", "result": "82±2", "unit": "%"}, {"measurement": "proportion of magnocellular neurons surviving", "setting": "[3]; [8]", "result": "100.0±2.4", "unit": "%"}]}
{"compound": "CNCC(=O)N[C@@H](CCCN=C(N)N)C(=O)N[C@H](C(=O)N[C@@H](Cc1ccc(O)cc1)C(=O)N[C@H](C(=O)N[C@@H](Cc1cnc[nH]1)C(=O)N1CCC[C@H]1C(=O)N[C@@H](C)C(=O)O)C(C)C)C(C)C", "note": "[saralasin, Sar^1Ala^8-angiotensin-II]", "values": [{"measurement": "effect on cell viability", "setting": "[4]; SHR PVN, saralasin by itself", "result": "no effect"}, {"measurement": "crossing of the blood-brain barrier", "setting": "[6]", "result": "does not cross the blood-brain barrier"}]}
{"compound": "a-dendrotoxin [a-DTX]", "values": [{"measurement": "inhibition of outwardly rectifying whole-cell current, compared with 100 μM 4-AP", "setting": "[2]; 1 μM", "result": "to an equal degree"}]}
{"compound": "angiotensin-II: octapeptide hormone, end product of the RAS, powerful arterial vasoconstrictor", "values": [{"measurement": "proportion of magnocellular neurons surviving", "setting": "[3]; [8]", "result": "97.4±4.2", "unit": "%"}, {"measurement": "proportion of magnocellular neurons surviving", "setting": "[3]; [7]", "result": "80.8±3.75", "unit": "%"}]}
